Measurements: patent US12552797B2, “Process for making (3-[cyclopropylethoxy(difluoro)methyl]-6-6[5-fluoro-6-(2,2,2-trifluoroethoxy-3-pyridyl]- [1,2,4]triazolo[4,3-a]pyrazine” (Praxis Precision Medicines, Inc., priority 2019, dated 2026)

Experiment: Stability of suspension formulations in methylcellulose/Poloxamer 188 vehicles (appearance, concentration, purity, PSD)
Format: physicochemical
Design: key to Appearance: *: homogeneous suspension initially, sedimentation occurred over time and returned to homogeneous after gentle agitation for ~1 min; #: viscous homogeneous suspension initially, sedimentation occurred over time and returned to homogeneous after gentle agitation for ~2 mins
Conditions: 0.5% 400 cP MC, 0.2% Poloxamer 188
Method: As shown in Tables 9-11, various suspension formulations were tested for stability under different conditions.
To prepare a suspension weigh required amount of milled Compound 1 into a glass container and add corresponding volume of the vehicle. Thoroughly disperse the compound into a homogenous suspension using an overhead mixer at the final concentration target. Concentrations were prepared at 0.1 mg/mL and at 10 mg/mL. The suspension products were physically evaluated on visual appearance, concentration, purity and PSD.
The vehicles are prepared by dissolving 0.5% by weight of either 400 cP methylcellulose or 4000 cP methylcellulose and 0.2% Poloxamer 188. For the preserved suspensions, additionally 1.0% by volume of paraben preservative solution was dissolved into vehicle using an overhead mixer. The paraben preservative solution was prepared by dissolving 0.10 g methyl paraben, 0.025 g propylparaben in 9.875 g propylene glycol dissolved by mixing with a stir bar at room temperature for 1 hour.

[1] = target 0.1 mg/mL, 2-8° C., 14 D
[2] = target 0.1 mg/mL, 2-8° C., 28 D
[3] = target 0.1 mg/mL, 2-8° C., time 0
[4] = target 0.1 mg/mL, 25° C./60% RH, 2 M
[5] = target 0.1 mg/mL, 25° C./60% RH, 3 M
[6] = target 0.1 mg/mL, 25° C./60% RH, 7 D
[7] = target 0.1 mg/mL, 25° C./60% RH, 14 D
[8] = target 0.1 mg/mL, 25° C./60% RH, 28 D
[9] = target 0.1 mg/mL, 25° C./60% RH, time 0
[10] = target 10 mg/mL, 2-8° C., time 0
[11] = target 10 mg/mL, 25° C./60% RH, 2 M
[12] = target 10 mg/mL, 25° C./60% RH, 3 M
[13] = target 10 mg/mL, 25° C./60% RH, 7 D
[14] = target 10 mg/mL, 25° C./60% RH, 14 D
[15] = target 10 mg/mL, 25° C./60% RH, 28 D
[16] = target 10 mg/mL, 25° C./60% RH, time 0

CCOC(F)(F)c1nnc2cnc(-c3cnc(OCC(F)(F)F)c(F)c3)cn12 [Compound 1, 3-(ethoxydifluoromethyl)-6-(5-fluoro-6-(2,2,2-trifluoroethoxy)pyridin-3-yl)-[1,2,4]triazolo[4,3-a]pyrazine]
Appearance (target 0.1 mg/mL, 2-8° C., 2 M): * | Conc. (target 0.1 mg/mL, 2-8° C., 2 M): 110 µg/mL | PSD (D90) (target 0.1 mg/mL, 2-8° C., 2 M): 9.1 μm | Purity (target 0.1 mg/mL, 2-8° C., 2 M): 95.87% | Appearance (target 0.1 mg/mL, 2-8° C., 3 M): * | Conc. (target 0.1 mg/mL, 2-8° C., 3 M): 110 µg/mL | PSD (D90) (target 0.1 mg/mL, 2-8° C., 3 M): 12.7 μm | Purity (target 0.1 mg/mL, 2-8° C., 3 M): 93.20% | Appearance (target 0.1 mg/mL, 2-8° C., 7 D): * | Conc. (target 0.1 mg/mL, 2-8° C., 7 D): 120 µg/mL | PSD (D90) (target 0.1 mg/mL, 2-8° C., 7 D): 18.2 μm | Purity (target 0.1 mg/mL, 2-8° C., 7 D): 100% | Appearance [1]: * | Conc. [1]: 110 µg/mL | PSD (D90) [1]: 14.2 μm | Purity [1]: 100% | Appearance [2]: * | Conc. [2]: 110 µg/mL | PSD (D90) [2]: 15.4 μm | Purity [2]: 100% | Appearance [3]: * | Conc. [3]: 110 µg/mL | PSD (D90) [3]: 19.9 μm | Purity [3]: 100% | Appearance [4]: * | Conc. [4]: 110 µg/mL | PSD (D90) [4]: 8.6 μm | Purity [4]: 95.87% | Appearance [5]: * | Conc. [5]: 110 µg/mL | PSD (D90) [5]: 11.1 μm | Purity [5]: 93.20% | Appearance [6]: * | Conc. [6]: 110 µg/mL | PSD (D90) [6]: 19.9 μm | Purity [6]: 100.0% | Appearance [7]: * | Conc. [7]: 110 µg/mL | PSD (D90) [7]: 12.9 μm | Purity [7]: 100% | Appearance [8]: * | Conc. [8]: 100 µg/mL | PSD (D90) [8]: 8.7 μm | Purity [8]: 100% | Appearance [9]: * | Conc. [9]: 110 µg/mL | PSD (D90) [9]: 19.9 μm | Purity [9]: 100.0% | Appearance (target 10 mg/mL, 2-8° C., 2 M): * | Conc. (target 10 mg/mL, 2-8° C., 2 M): 10990 µg/mL | PSD (D90) (target 10 mg/mL, 2-8° C., 2 M): 4.0 μm | Purity (target 10 mg/mL, 2-8° C., 2 M): 99.83% | Appearance (target 10 mg/mL, 2-8° C., 3 M): * | Conc. (target 10 mg/mL, 2-8° C., 3 M): 10130 µg/mL | PSD (D90) (target 10 mg/mL, 2-8° C., 3 M): 3.6 μm | Purity (target 10 mg/mL, 2-8° C., 3 M): 99.83% | Appearance (target 10 mg/mL, 2-8° C., 7 D): * | Conc. (target 10 mg/mL, 2-8° C., 7 D): 10180 µg/mL | PSD (D90) (target 10 mg/mL, 2-8° C., 7 D): 6.4 μm | Purity (target 10 mg/mL, 2-8° C., 7 D): 99.83% | Appearance (target 10 mg/mL, 2-8° C., 14 D): * | Conc. (target 10 mg/mL, 2-8° C., 14 D): 10660 µg/mL | PSD (D90) (target 10 mg/mL, 2-8° C., 14 D): 5.4 μm | Purity (target 10 mg/mL, 2-8° C., 14 D): 99.83% | Appearance (target 10 mg/mL, 2-8° C., 28 D): * | Conc. (target 10 mg/mL, 2-8° C., 28 D): 10560 µg/mL | PSD (D90) (target 10 mg/mL, 2-8° C., 28 D): 3.8 μm | Purity (target 10 mg/mL, 2-8° C., 28 D): 99.83% | Appearance [10]: * | Conc. [10]: 10040 µg/mL | PSD (D90) [10]: 5.6 μm | Purity [10]: 99.83% | Appearance [11]: * | Conc. [11]: 10470 µg/mL | PSD (D90) [11]: 4.3 μm | Purity [11]: 99.83% | Appearance [12]: * | Conc. [12]: 10160 µg/mL | PSD (D90) [12]: 3.5 μm | Purity [12]: 99.83% | Appearance [13]: * | Conc. [13]: 10480 µg/mL | PSD (D90) [13]: 6.3 μm | Purity [13]: 99.83% | Appearance [14]: * | Conc. [14]: 9850 µg/mL | PSD (D90) [14]: 5.2 μm | Purity [14]: 99.83% | Appearance [15]: * | Conc. [15]: 10000 µg/mL | PSD (D90) [15]: 4.6 μm | Purity [15]: 99.83% | Appearance [16]: * | Conc. [16]: 10040 µg/mL | PSD (D90) [16]: 5.6 μm | Purity [16]: 99.83%
